≈ marks a conversion by molar mass, not a printed value. Blank lines part the entries; values can stand above or below the molecule they belong to.
Key:
[1] = Apparent permeability across apical to basolateral side in human Caco-2 cells assessed as drug recovery at pH 6.5 to 7.4; type: ADME, cell-based; conditions: Caco-2, pH 6.5, read-out: Drug recovery
[2] = Apparent permeability of the compound from apical to basolateral side in human Caco-2 cells at pH 6.5 to 7.4; type: ADME, cell-based; conditions: Caco-2, pH 6.5
[3] = n-Octanol/PBS partition coefficient, logD of the compound at pH 7.4; type: physicochemical
[4] = Aqueous solubility of compound by HPLC analysis; type: physicochemical
MDA-MB-468 [5] = assay: Anticancer activity against human MDA-MB-468 cells assessed as total cell growth inhibition incubated for 48 hrs by SRB assay; type: functional
A498 = assay: Anticancer activity against human A498 cells assessed as cell growth inhibition incubated for 48 hrs by SRB assay; type: functional
[6] = Cytotoxicity against human WI-38 cells assessed as cell growth inhibition incubated for 48 hrs by SRB assay; type: toxicity, cell-based
SK-MEL-28 = assay: Anticancer activity against human SK-MEL-28 cells assessed as cell growth inhibition incubated for 48 hrs by SRB assay; type: functional
CCRF-CEM = assay: Anticancer activity against human CCRF-CEM cells assessed as cell growth inhibition incubated for 48 hrs by SRB assay; type: functional
HL-60 = assay: Anticancer activity against human HL-60 cells assessed as total cell growth inhibition incubated for 48 hrs by SRB assay; type: functional
SK-OV-3 = assay: Anticancer activity against human SK-OV-3 cells assessed as cell growth inhibition incubated for 48 hrs by SRB assay; type: functional
SN12C = assay: Anticancer activity against human SN12C cells assessed as cell growth inhibition incubated for 48 hrs by SRB assay; type: functional
PC-3 = assay: Anticancer activity against human PC-3 cells assessed as cell growth inhibition incubated for 48 hrs by SRB assay; type: functional
NCI-H226 = assay: Anticancer activity against human NCI-H226 cells assessed as cell growth inhibition incubated for 48 hrs by SRB assay; type: functional
TK-10 [7] = assay: Anticancer activity against human TK-10 cells assessed as cell growth inhibition incubated for 48 hrs by SRB assay; type: functional
Malme-3M = assay: Anticancer activity against human Malme-3M cells assessed as cell growth inhibition incubated for 48 hrs by SRB assay; type: functional
SK-MEL-2 = assay: Anticancer activity against human SK-MEL-2 cells assessed as cell growth inhibition incubated for 48 hrs by SRB assay; type: functional
HCT-15 = assay: Anticancer activity against human HCT-15 cells assessed as cell growth inhibition incubated for 48 hrs by SRB assay; type: functional
NCI-H322M = assay: Anticancer activity against human NCI-H322M cells assessed as cell growth inhibition incubated for 48 hrs by SRB assay; type: functional
NCI-H23 [8] = assay: Anticancer activity against human NCI-H23 cells assessed as total cell growth inhibition incubated for 48 hrs by SRB assay; type: functional
UACC-257 [9] = assay: Anticancer activity against human UACC-257 cells assessed as total cell growth inhibition incubated for 48 hrs by SRB assay; type: functional
HOP-92 = assay: Anticancer activity against human HOP-92 cells assessed as total cell growth inhibition incubated for 48 hrs by SRB assay; type: functional
U-251 = assay: Anticancer activity against human U-251 cells assessed as cell growth inhibition incubated for 48 hrs by SRB assay; type: functional
NCI/ADR-RES = assay: Anticancer activity against human NCI/ADR-RES cells assessed as cell growth inhibition incubated for 48 hrs by SRB assay; type: functional
SF-268 = assay: Anticancer activity against human SF-268 cells assessed as cell growth inhibition incubated for 48 hrs by SRB assay; type: functional
MDA-MB-231 = assay: Anticancer activity against human MDA-MB-231 cells assessed as cell growth inhibition incubated for 48 hrs by SRB assay; type: functional
IGROV-1 [10] = assay: Anticancer activity against human IGROV-1 cells assessed as total cell growth inhibition incubated for 48 hrs by SRB assay; type: functional
UACC-257 [11] = assay: Anticancer activity against human UACC-257 cells assessed as cell growth inhibition incubated for 48 hrs by SRB assay; type: functional
MCF7 = assay: Anticancer activity against human MCF7 cells assessed as cell growth inhibition incubated for 48 hrs by SRB assay; type: functional
ACHN [12] = assay: Anticancer activity against human ACHN cells assessed as cell growth inhibition incubated for 48 hrs by SRB assay; type: functional
MOLT-4 = assay: Anticancer activity against human MOLT-4 cells assessed as total cell growth inhibition incubated for 48 hrs by SRB assay; type: functional
IGROV-1 [13] = assay: Anticancer activity against human IGROV-1 cells assessed as cell growth inhibition incubated for 48 hrs by SRB assay; type: functional
NCI-H460 = assay: Anticancer activity against human NCI-H460 cells assessed as cell growth inhibition incubated for 48 hrs by SRB assay; type: functional
TK-10 [14] = assay: Anticancer activity against human TK-10 cells assessed as total cell growth inhibition incubated for 48 hrs by SRB assay; type: functional
HOP-62 = assay: Anticancer activity against human HOP-62 cells assessed as cell growth inhibition incubated for 48 hrs by SRB assay; type: functional
MDA-MB-468 [15] = assay: Anticancer activity against human MDA-MB-468 cells assessed as cell growth inhibition incubated for 48 hrs by SRB assay; type: functional
NCI-H522 = assay: Anticancer activity against human NCI-H522 cells assessed as cell growth inhibition incubated for 48 hrs by SRB assay; type: functional
ACHN [16] = assay: Anticancer activity against human ACHN cells assessed as total cell growth inhibition incubated for 48 hrs by SRB assay; type: functional
COLO 205 = assay: Anticancer activity against human COLO 205 cells assessed as cell growth inhibition incubated for 48 hrs by SRB assay; type: functional
EKVX = assay: Anticancer activity against human EKVX cells assessed as cell growth inhibition incubated for 48 hrs by SRB assay; type: functional
UO-31 = assay: Anticancer activity against human UO-31 cells assessed as cell growth inhibition incubated for 48 hrs by SRB assay; type: functional
SW-620 = assay: Anticancer activity against human SW-620 cells assessed as cell growth inhibition incubated for 48 hrs by SRB assay; type: functional
HT-29 = assay: Anticancer activity against human HT-29 cells assessed as cell growth inhibition incubated for 48 hrs by SRB assay; type: functional
M14 = assay: Anticancer activity against human M14 cells assessed as cell growth inhibition incubated for 48 hrs by SRB assay; type: functional
NCI-H23 [17] = assay: Anticancer activity against human NCI-H23 cells assessed as cell growth inhibition incubated for 48 hrs by SRB assay; type: functional

recovery [1]: 82%
Compound: CNC(=C[N+](=O)[O-])NCCSCc1ccc(CN(C)C)o1 [RANITIDINE]

Compound: COc1cc2c(c(OC)c1OC)-c1ccc(OC)c(=O)cc1[C@@H](NC(C)=O)CC2 [COLCHICINE]
recovery [1]: 75.5%
Papp A→B [2]: 0.3 ×10⁻⁶ cm/s

logD [3]: 4.45
Compound: CCC(C)(C)C(=O)O[C@H]1C[C@@H](C)C=C2C=C[C@H](C)[C@H](CC[C@@H]3C[C@@H](O)CC(=O)O3)[C@H]21 [SIMVASTATIN]

solubility [4]: 212 µM (≈ 120 µg/mL)
logD [3]: 3.1
Compound: COc1cc2cc(Oc3ccc(NC(=O)Nc4cc(C(F)(F)F)cc(C(F)(F)F)c4)cc3)c(C)nc2cc1OC

solubility [4]: 93.1 µM (≈ 23.5 µg/mL)
Compound: O=C1NC(=O)C(c2ccccc2)(c2ccccc2)N1 [PHENYTOIN]

GI50 (SK-MEL-28): 2510 nM
GI50 (CCRF-CEM): 2000 nM
GI50 (SK-OV-3): 2510 nM
solubility [4]: 3.27 µM (≈ 1.52 µg/mL)
GI50 (PC-3): 2000 nM
GI50 (NCI-H226): 2000 nM
GI50 (SK-MEL-2): 2000 nM
GI50 (HCT-15): 2510 nM
GI50 (NCI-H322M): 2510 nM
Papp A→B [2]: 16.4 ×10⁻⁶ cm/s
logD [3]: 3.85
GI50 (U-251): 2000 nM
GI50 (MDA-MB-231): 1260 nM
GI50 (MCF7): 2510 nM
GI50 (ACHN [12]): 2510 nM
GI50 (NCI-H460): 2510 nM
GI50 (MDA-MB-468 [15]): 3160 nM
GI50 (NCI-H522): 2000 nM
GI50 (COLO 205): 2000 nM
GI50 (SW-620): 2510 nM
GI50 (HT-29): 2000 nM
GI50 (NCI-H23 [17]): 2000 nM
Compound: CNC(=O)c1cc(Oc2ccc(NC(=O)Nc3ccc(Cl)c(C(F)(F)F)c3)cc2)ccn1 [SORAFENIB]
TGI (MDA-MB-468 [5]): 7940 nM
GI50 (A498): 2510 nM
GI50 at 48 h [6]: > 20000 nM
TGI (HL-60): 100000 nM
GI50 (SN12C): 2510 nM
GI50 (TK-10 [7]): 3980 nM
GI50 (Malme-3M): 2000 nM
TGI (NCI-H23 [8]): 5010 nM
TGI (UACC-257 [9]): 5010 nM
TGI (HOP-92): 5010 nM
GI50 (NCI/ADR-RES): 2510 nM
GI50 (SF-268): 2510 nM
TGI (IGROV-1 [10]): 10000 nM
GI50 (UACC-257 [11]): 2000 nM
TGI (MOLT-4): 100000 nM
GI50 (IGROV-1 [13]): 2510 nM
TGI (TK-10 [14]): 10000 nM
GI50 (HOP-62): 2000 nM
TGI (ACHN [16]): 10000 nM
GI50 (EKVX): 2510 nM
GI50 (UO-31): 2510 nM
GI50 (M14): 2000 nM

recovery [1]: 91%
Papp A→B [2]: 72 ×10⁻⁶ cm/s
Compound: CC(CCc1ccccc1)NCC(O)c1ccc(O)c(C(N)=O)c1 (stereo unspecified) [LABETALOL]

solubility [4]: 175 µM (≈ 144 µg/mL)
logD [3]: 1.31
Compound: CO[C@H]1/C=C/O[C@@]2(C)Oc3c(C)c(O)c4c(O)c(c(/C=N/N5CCN(C)CC5)c(O)c4c3C2=O)NC(=O)/C(C)=C\C=C\[C@H](C)[C@H](O)[C@@H](C)[C@@H](O)[C@@H](C)[C@H](OC(C)=O)[C@@H]1C [RIFAMPIN]

solubility [4]: 114 µM (≈ 66.9 µg/mL)
Compound: COc1cc2cc(Oc3ccc(NC(=O)Nc4ccc(Cl)c(C(F)(F)F)c4)cc3)c(C)nc2cc1OCCN(C)C
